Where “and” joins values, the source holds several entries; their conditions need not be identical. Equal entries are not always repeated.
Key:
[1] = target: KIT (human) (UniProt P10721); assay: KINOMEscan competition binding; conditions: compound 10.0 µM
[2] = test system: EGFR (human), P00533 [752-759 del]; assay: KINOMEscan competition binding; conditions: compound 10.0 µM
[3] = test system: EGFR (human), P00533 [747-751 del / S ins]; assay: KINOMEscan competition binding; conditions: compound 10.0 µM
[4] = target: ULK1 (human) (UniProt O75385); assay: KINOMEscan competition binding; conditions: compound 10.0 µM
[5] = target: BMP2K (human) (UniProt Q9NSY1); assay: KINOMEscan competition binding; conditions: compound 10.0 µM
[6] = target: LCK (human) (UniProt P06239); assay: KINOMEscan competition binding; conditions: compound 10.0 µM
[7] = test system: EGFR (human), P00533 [L861Q]; assay: KINOMEscan competition binding; conditions: compound 10.0 µM
[8] = target: TNK2 (human) (UniProt Q07912); assay: KINOMEscan competition binding; conditions: compound 10.0 µM
[9] = target: SIK1 (human) (UniProt P57059); assay: KINOMEscan competition binding; conditions: compound 10.0 µM
[10] = target: PDGFRB (human) (UniProt P09619); assay: KINOMEscan competition binding; conditions: compound 10.0 µM
[11] = test system: KIT (human), P10721 [V559D]; assay: KINOMEscan competition binding; conditions: compound 10.0 µM
[12] = target: RPS6KA6 KD2 (human) (UniProt Q9UK32); assay: KINOMEscan competition binding; conditions: compound 10.0 µM
[13] = target: RIOK3 (human) (UniProt O14730); assay: KINOMEscan competition binding; conditions: compound 10.0 µM
[14] = target: TYK2 JH2 pseudokinase (human) (UniProt P29597); assay: KINOMEscan competition binding; conditions: compound 10.0 µM
[15] = target: SRPK1 (human) (UniProt Q96SB4); assay: KINOMEscan competition binding; conditions: compound 10.0 µM
[16] = test system: EGFR (human), P00533 [L858R]; assay: KINOMEscan competition binding; conditions: compound 10.0 µM
[17] = target: GAK (human) (UniProt O14976); assay: KINOMEscan competition binding; conditions: compound 10.0 µM
Chain of GAK (human) (O14976 whole entry, looked up): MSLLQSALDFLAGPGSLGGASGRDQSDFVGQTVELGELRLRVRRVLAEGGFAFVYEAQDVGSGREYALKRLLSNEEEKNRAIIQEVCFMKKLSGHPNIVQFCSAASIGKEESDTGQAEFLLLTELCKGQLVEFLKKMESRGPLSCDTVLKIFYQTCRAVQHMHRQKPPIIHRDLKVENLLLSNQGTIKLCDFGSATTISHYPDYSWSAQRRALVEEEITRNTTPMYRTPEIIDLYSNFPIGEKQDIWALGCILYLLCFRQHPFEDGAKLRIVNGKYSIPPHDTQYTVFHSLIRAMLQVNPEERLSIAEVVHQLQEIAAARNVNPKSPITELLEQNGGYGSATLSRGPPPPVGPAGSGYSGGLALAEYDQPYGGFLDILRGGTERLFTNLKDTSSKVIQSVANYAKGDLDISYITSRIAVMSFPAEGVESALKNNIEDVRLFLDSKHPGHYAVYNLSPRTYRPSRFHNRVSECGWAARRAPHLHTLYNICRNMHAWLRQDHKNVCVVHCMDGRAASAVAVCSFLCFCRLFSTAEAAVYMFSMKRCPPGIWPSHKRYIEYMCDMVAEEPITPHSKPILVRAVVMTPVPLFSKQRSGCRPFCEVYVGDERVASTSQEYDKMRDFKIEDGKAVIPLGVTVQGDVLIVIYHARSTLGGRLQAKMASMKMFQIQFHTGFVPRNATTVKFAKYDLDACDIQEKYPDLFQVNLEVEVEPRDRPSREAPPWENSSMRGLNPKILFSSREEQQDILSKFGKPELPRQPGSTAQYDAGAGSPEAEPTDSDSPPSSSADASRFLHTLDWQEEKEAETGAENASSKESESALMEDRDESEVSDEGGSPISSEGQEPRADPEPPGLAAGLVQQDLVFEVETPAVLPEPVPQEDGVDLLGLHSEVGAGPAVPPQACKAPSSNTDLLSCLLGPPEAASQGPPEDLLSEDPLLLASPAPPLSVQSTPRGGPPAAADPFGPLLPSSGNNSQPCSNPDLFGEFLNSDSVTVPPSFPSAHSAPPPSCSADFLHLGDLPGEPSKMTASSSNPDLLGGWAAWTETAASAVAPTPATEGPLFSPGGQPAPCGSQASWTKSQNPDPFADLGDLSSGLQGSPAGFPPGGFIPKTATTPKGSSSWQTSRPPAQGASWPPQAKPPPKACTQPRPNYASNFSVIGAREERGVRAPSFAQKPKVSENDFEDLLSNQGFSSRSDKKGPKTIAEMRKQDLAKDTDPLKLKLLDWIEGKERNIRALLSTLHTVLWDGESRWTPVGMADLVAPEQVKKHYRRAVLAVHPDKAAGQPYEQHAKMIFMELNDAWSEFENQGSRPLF

[18] = test system: EGFR (human), P00533 [G719C; 746-750 del]; assay: KINOMEscan competition binding; conditions: compound 10.0 µM
[19] = test system: FLT3 (human), P36888 [D835Y]; assay: KINOMEscan competition binding; conditions: compound 10.0 µM
[20] = test system: FLT3 (human), P36888 [D835H]; assay: KINOMEscan competition binding; conditions: compound 10.0 µM
[21] = target: BLK (human) (UniProt P51451); assay: KINOMEscan competition binding; conditions: compound 10.0 µM
[22] = target: RPS6KA1 KD2 (human) (UniProt Q15418); assay: KINOMEscan competition binding; conditions: compound 10.0 µM
[23] = target: RIOK1 (human) (UniProt Q9BRS2); assay: KINOMEscan competition binding; conditions: compound 10.0 µM
[24] = test system: KIT (human), P10721 [D816V]; assay: KINOMEscan competition binding; conditions: compound 10.0 µM
[25] = target: CSF1R (human) (UniProt P07333); assay: KINOMEscan competition binding; conditions: compound 10.0 µM
[26] = test system: FLT3 (human), P36888 [N841I]; assay: KINOMEscan competition binding; conditions: compound 10.0 µM
[27] = test system: FLT3 (human), P36888 [ITD]; assay: KINOMEscan competition binding; conditions: compound 10.0 µM
[28] = test system: EGFR (human), P00533 [A750P; 747-749 del]; assay: KINOMEscan competition binding; conditions: compound 10.0 µM
[29] = test system: ABL1 (human), P00519 [F317I]; assay: KINOMEscan competition binding; conditions: compound 10.0 µM
[30] = test system: ABL1 (human), P00519 [F317L]; assay: KINOMEscan competition binding; conditions: compound 10.0 µM
[31] = target: CHEK1 (human) (UniProt O14757); assay: KINOMEscan competition binding; conditions: compound 10.0 µM
[32] = test system: EGFR (human), P00533 [P753S; 747-752 del]; assay: KINOMEscan competition binding; conditions: compound 10.0 µM
[33] = target: SIK2 (human) (UniProt Q9H0K1); assay: KINOMEscan competition binding; conditions: compound 10.0 µM
[34] = target: FRK (human) (UniProt P42685); assay: KINOMEscan competition binding; conditions: compound 10.0 µM
[35] = target: SRPK3 (human) (UniProt Q9UPE1); assay: KINOMEscan competition binding; conditions: compound 10.0 µM
[36] = target: PIP5K1A (human) (UniProt Q99755); assay: KINOMEscan competition binding; conditions: compound 10.0 µM
[37] = target: SLK (human) (UniProt Q9H2G2); assay: KINOMEscan competition binding; conditions: compound 10.0 µM
Chain of SLK (human) (Q9H2G2 whole entry, looked up): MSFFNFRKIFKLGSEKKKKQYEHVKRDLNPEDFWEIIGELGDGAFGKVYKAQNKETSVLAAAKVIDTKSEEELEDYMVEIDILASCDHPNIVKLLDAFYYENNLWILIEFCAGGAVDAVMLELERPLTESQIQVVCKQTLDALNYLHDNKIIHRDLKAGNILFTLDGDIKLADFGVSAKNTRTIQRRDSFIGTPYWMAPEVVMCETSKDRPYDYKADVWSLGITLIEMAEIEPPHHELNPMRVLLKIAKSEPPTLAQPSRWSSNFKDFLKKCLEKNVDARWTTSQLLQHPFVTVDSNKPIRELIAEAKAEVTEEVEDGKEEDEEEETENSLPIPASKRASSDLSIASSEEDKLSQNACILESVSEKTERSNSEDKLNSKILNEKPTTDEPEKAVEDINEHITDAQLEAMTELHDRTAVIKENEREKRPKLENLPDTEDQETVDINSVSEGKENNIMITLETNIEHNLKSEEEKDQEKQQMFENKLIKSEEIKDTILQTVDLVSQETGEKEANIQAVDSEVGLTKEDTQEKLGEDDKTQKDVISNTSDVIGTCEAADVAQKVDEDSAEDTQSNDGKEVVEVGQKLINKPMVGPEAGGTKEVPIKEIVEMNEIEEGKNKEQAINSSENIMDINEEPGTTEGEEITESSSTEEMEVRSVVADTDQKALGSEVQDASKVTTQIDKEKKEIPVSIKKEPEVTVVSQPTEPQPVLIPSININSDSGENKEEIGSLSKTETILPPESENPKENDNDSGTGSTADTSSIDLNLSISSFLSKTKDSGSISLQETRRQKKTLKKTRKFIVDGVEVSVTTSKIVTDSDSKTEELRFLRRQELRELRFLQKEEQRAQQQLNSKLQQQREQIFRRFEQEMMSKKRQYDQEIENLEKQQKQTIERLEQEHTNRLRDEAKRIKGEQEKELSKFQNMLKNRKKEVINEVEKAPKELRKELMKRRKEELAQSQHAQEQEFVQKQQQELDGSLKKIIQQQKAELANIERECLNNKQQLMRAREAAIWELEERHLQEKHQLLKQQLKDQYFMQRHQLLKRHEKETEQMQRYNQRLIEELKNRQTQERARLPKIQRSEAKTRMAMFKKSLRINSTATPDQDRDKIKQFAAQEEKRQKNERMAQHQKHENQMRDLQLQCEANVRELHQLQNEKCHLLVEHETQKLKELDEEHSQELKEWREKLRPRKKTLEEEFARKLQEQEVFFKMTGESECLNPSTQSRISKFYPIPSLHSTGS

[38] = target: PTK2B (human) (UniProt Q14289); assay: KINOMEscan competition binding; conditions: compound 10.0 µM
[39] = target: PTK2 (human) (UniProt Q05397); assay: KINOMEscan competition binding; conditions: compound 10.0 µM
[40] = target: EGFR (human) (UniProt P00533); assay: KINOMEscan competition binding; conditions: compound 10.0 µM
[41] = target: PLK1 (human) (UniProt P53350); assay: KINOMEscan competition binding; conditions: compound 10.0 µM
Chain of PLK1 (human) (P53350 whole entry, looked up): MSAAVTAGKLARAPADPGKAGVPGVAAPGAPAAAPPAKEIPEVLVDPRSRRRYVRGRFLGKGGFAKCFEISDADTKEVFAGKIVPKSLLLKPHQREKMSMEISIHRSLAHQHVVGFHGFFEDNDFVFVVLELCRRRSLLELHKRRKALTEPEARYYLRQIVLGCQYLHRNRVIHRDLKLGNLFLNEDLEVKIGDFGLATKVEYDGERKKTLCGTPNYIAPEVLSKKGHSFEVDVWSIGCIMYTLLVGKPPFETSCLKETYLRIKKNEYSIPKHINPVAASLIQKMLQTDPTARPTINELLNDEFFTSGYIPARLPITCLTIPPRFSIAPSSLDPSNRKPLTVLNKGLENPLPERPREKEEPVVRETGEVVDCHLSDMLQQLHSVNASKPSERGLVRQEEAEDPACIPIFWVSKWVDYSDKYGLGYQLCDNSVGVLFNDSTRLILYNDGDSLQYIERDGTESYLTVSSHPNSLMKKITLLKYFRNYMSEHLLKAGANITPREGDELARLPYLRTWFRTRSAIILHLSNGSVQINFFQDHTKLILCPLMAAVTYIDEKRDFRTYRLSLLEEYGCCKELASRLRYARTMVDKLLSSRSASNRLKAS

[42] = target: TTK (human) (UniProt P33981); assay: KINOMEscan competition binding; conditions: for kinase still bound, per cent of control: compound 10.0 µM
Chain of TTK (human) (P33981 whole entry, looked up): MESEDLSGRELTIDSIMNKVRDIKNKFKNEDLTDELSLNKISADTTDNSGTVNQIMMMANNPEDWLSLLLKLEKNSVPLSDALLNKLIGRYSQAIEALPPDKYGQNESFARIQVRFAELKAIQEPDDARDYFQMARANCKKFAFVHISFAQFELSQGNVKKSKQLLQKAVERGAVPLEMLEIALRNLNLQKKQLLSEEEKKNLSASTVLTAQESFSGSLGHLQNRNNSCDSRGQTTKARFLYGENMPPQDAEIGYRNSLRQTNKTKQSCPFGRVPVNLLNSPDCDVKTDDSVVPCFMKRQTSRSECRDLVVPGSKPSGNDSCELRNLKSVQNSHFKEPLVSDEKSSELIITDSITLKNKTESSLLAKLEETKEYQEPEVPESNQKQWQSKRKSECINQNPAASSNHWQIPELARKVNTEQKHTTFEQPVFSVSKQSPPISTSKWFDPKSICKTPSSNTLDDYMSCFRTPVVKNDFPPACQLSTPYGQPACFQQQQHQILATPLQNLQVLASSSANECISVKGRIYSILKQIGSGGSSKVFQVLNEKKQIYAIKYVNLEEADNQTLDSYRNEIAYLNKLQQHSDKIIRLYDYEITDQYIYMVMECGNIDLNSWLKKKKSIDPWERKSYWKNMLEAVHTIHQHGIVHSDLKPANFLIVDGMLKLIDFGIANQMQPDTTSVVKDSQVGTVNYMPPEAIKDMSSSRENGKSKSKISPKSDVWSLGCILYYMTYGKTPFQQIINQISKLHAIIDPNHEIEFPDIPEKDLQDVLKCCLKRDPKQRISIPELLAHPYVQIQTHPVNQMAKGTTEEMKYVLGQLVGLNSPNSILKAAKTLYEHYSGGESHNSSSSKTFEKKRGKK

[43] = test system: EGFR (human), P00533 [G719S]; assay: KINOMEscan competition binding; conditions: compound 10.0 µM
[44] = target: PLK3 (human) (UniProt Q9H4B4); assay: KINOMEscan competition binding; conditions: compound 10.0 µM
Chain of PLK3 (human) (Q9H4B4 whole entry, looked up): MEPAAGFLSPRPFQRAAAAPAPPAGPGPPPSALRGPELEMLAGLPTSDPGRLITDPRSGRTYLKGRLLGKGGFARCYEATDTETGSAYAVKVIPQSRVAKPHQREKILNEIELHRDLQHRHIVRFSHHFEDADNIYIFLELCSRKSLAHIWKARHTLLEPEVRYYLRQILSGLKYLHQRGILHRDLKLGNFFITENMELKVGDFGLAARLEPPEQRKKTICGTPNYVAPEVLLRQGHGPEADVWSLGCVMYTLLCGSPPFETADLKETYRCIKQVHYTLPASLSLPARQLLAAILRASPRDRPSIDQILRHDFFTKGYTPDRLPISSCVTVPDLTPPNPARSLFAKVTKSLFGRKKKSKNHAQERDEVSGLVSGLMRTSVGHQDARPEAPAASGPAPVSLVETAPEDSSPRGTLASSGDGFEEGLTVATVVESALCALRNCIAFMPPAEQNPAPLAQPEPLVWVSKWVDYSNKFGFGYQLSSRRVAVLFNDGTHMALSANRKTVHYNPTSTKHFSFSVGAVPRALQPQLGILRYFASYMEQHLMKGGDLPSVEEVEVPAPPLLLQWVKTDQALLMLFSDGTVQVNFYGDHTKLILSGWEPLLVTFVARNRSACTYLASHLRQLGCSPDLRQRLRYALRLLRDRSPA

[45] = target: TTK (human) (UniProt P33981); assay: SelectScreen, TR FRET
[46] = target: INSRR (human) (UniProt P14616); assay: KINOMEscan competition binding; conditions: compound 10.0 µM
[47] = target: DAPK2 (human) (UniProt Q9UIK4); assay: KINOMEscan competition binding; conditions: compound 10.0 µM
Chain of DAPK2 (human) (Q9UIK4 whole entry, looked up): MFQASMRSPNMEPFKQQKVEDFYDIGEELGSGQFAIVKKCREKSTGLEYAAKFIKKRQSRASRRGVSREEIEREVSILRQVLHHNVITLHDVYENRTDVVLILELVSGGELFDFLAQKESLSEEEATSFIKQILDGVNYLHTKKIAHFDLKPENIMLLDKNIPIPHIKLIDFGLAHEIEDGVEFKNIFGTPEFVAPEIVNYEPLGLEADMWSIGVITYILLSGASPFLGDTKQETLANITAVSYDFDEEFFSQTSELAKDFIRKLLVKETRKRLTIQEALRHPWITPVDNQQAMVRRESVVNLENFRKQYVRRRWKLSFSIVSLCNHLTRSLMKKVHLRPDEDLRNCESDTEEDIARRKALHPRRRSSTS

[48] = target: CAMKK2 (human) (UniProt Q96RR4); assay: KINOMEscan competition binding; conditions: compound 10.0 µM
[49] = target: FGFR4 (human) (UniProt P22455); assay: KINOMEscan competition binding; conditions: compound 10.0 µM
[50] = target: MYLK (human) (UniProt Q15746); assay: KINOMEscan competition binding; conditions: compound 10.0 µM
[51] = target: IGF1R (human) (UniProt P08069); assay: KINOMEscan competition binding; conditions: compound 10.0 µM
[52] = target: MET (human) (UniProt P08581); assay: KINOMEscan competition binding; conditions: compound 10.0 µM
[53] = target: INSR (human) (UniProt P06213); assay: KINOMEscan competition binding; conditions: compound 10.0 µM
[54] = target: FER (human) (UniProt P16591); assay: KINOMEscan competition binding; conditions: compound 10.0 µM
[55] = target: DAPK3 (human) (UniProt O43293); assay: KINOMEscan competition binding; conditions: compound 10.0 µM
[56] = target: RPS6KA2 KD2 (human) (UniProt Q15349); assay: KINOMEscan competition binding; conditions: compound 10.0 µM
[57] = target: DCLK1 (human) (UniProt O15075); assay: KINOMEscan competition binding; conditions: compound 10.0 µM
[58] = target: STK33 (human) (UniProt Q9BYT3); assay: KINOMEscan competition binding; conditions: compound 10.0 µM
[59] = target: PLK4 (human) (UniProt O00444); assay: KINOMEscan competition binding; conditions: compound 10.0 µM
[60] = target: ALK (human) (UniProt Q9UM73); assay: KINOMEscan competition binding; conditions: compound 10.0 µM
[61] = target: ULK2 (human) (UniProt Q8IYT8); assay: KINOMEscan competition binding; conditions: compound 10.0 µM
[62] = target: TNK1 (human) (UniProt Q13470); assay: KINOMEscan competition binding; conditions: compound 10.0 µM
[63] = target: MKNK2 (human) (UniProt Q9HBH9); assay: KINOMEscan competition binding; conditions: compound 10.0 µM

COc1cc(N2CCN(C)CC2)ccc1Nc1ncc2c(n1)N(c1ccccc1)CCC(=O)N2
kinase still bound, per cent of control [1]: 5.7% | kinase still bound, per cent of control [2]: 14% | kinase still bound, per cent of control [3]: 11% | kinase still bound, per cent of control [4]: 24% | kinase still bound, per cent of control [5]: 15% | kinase still bound, per cent of control [6]: 25% | kinase still bound, per cent of control [7]: 21% | kinase still bound, per cent of control [8]: 5% | kinase still bound, per cent of control [9]: 12% | kinase still bound, per cent of control [10]: 1.1% | kinase still bound, per cent of control [11]: 4.6% | kinase still bound, per cent of control [12]: 18% | kinase still bound, per cent of control [13]: 23% | kinase still bound, per cent of control [14]: 28% | kinase still bound, per cent of control [15]: 29% | kinase still bound, per cent of control [16]: 31% | kinase still bound, per cent of control [17]: 2% | kinase still bound, per cent of control [18]: 12% | kinase still bound, per cent of control [19]: 8.6% | kinase still bound, per cent of control [20]: 18% | kinase still bound, per cent of control [21]: 21% | kinase still bound, per cent of control [22]: 33% | kinase still bound, per cent of control [23]: 27% | kinase still bound, per cent of control [24]: 2.4% | kinase still bound, per cent of control [25]: 16% | kinase still bound, per cent of control [26]: 23% | kinase still bound, per cent of control [27]: 31% | kinase still bound, per cent of control [28]: 5.2% | kinase still bound, per cent of control [29]: 17% | kinase still bound, per cent of control [30]: 16% | kinase still bound, per cent of control [31]: 27% | kinase still bound, per cent of control [32]: 17% | kinase still bound, per cent of control [33]: 26% | kinase still bound, per cent of control [34]: 2.8% | kinase still bound, per cent of control [35]: 30% | kinase still bound, per cent of control [36]: 34% | kinase still bound, per cent of control [37]: 29%

COc1cc(N2CCC(O)CC2)ccc1Nc1ncc2c(n1)N(c1ccccc1)CCC(=O)N2C
kinase still bound, per cent of control [2]: 21% | kinase still bound, per cent of control [38]: 22% | kinase still bound, per cent of control [3]: 12% | kinase still bound, per cent of control [7]: 25% | kinase still bound, per cent of control [39]: 19% | kinase still bound, per cent of control [40]: 24% | kinase still bound, per cent of control [16]: 30% | kinase still bound, per cent of control [41]: 1.2% | kinase still bound, per cent of control [17]: 2% | kinase still bound, per cent of control [42]: 5% | kinase still bound, per cent of control [18]: 30% | kinase still bound, per cent of control [43]: 23% | kinase still bound, per cent of control [28]: 21% | kinase still bound, per cent of control [32]: 15% | kinase still bound, per cent of control [44]: 21%

COc1cc(N2CCC(C)(O)CC2)ccc1Nc1ncc2c(n1)N(C1CCCC1)CCC(=O)N2C
IC50 [45]: 254 nM | kinase still bound, per cent of control [2]: 10% | kinase still bound, per cent of control [38]: 3.1% | kinase still bound, per cent of control [3]: 6.2% | kinase still bound, per cent of control [46]: 30% | kinase still bound, per cent of control [47]: 29% | kinase still bound, per cent of control [48]: 20% | kinase still bound, per cent of control [7]: 6.6% | kinase still bound, per cent of control [49]: 34% | kinase still bound, per cent of control [50]: 31% | kinase still bound, per cent of control [51]: 14% | kinase still bound, per cent of control [52]: 9.1% | kinase still bound, per cent of control [39]: 6.2% | kinase still bound, per cent of control [53]: 28% | kinase still bound, per cent of control [40]: 17% and 29% | kinase still bound, per cent of control [16]: 17% | kinase still bound, per cent of control [41]: 0.2% | kinase still bound, per cent of control [54]: 18% | kinase still bound, per cent of control [17]: 1.2% | Kd [42]: 20.5 nM | kinase still bound, per cent of control [42]: 3.8% | kinase still bound, per cent of control [18]: 10% | kinase still bound, per cent of control [55]: 34% | kinase still bound, per cent of control [56]: 30% | kinase still bound, per cent of control [57]: 20% | kinase still bound, per cent of control [58]: 12% | kinase still bound, per cent of control [43]: 14% | kinase still bound, per cent of control [59]: 8.2% | kinase still bound, per cent of control [60]: 22% | kinase still bound, per cent of control [61]: 26% | kinase still bound, per cent of control [28]: 4% | kinase still bound, per cent of control [62]: 11% | kinase still bound, per cent of control [32]: 6.6% | kinase still bound, per cent of control [44]: 1.8% | kinase still bound, per cent of control [63]: 13% | kinase still bound, per cent of control [37]: 31%

— the kinase profiling compilation of Christmann-Franck et al. (2016)
